Measured values taken from patent US20100292233A1, “DIHYDRO-1H-PYRROLO[1,2-A]INDOL-1-YL CARBOXYLIC ACID DERIVATIVES WHICH ACT AS S1P1 AGONISTS” (ARENA PHARMACEUTICALS, INC., priority 2008, published 2010).

Columns and labels:
NOD/Ltj mice = experiment: Cyclophosphamide induced type 1 diabetes in mice; type: in vivo, mouse; conditions: oral, once a day from day 0 until day 25; 3 and 10 mg/kg; FIG. 6
Procedure: Animals: Baseline blood glucose measurements were taken from 9-10 week old female NOD/Ltj mice (Jackson Laboratory, Bar Harbor, Me.) to ensure that they are normoglycemic (blood glucose is 80-120 mg/dL) prior to initiation of the experiment. Blood glucose was measured from tail bleeds using a One Touch Ultra® kit and test strips (LifeScan, Milpitas, Calif.).
Cyclophosphamide induction of Type 1 diabetes: On day 0 and day 14, normoglycemic NOD mice were injected intraperitoneally with 4 mg cyclophosphamide monohydrate (200 mg/kg) dissolved in 0.9% saline. If mice were diabetic (blood glucose is >250 mg/dL) they were not given a booster dose of cyclophosphamide on day 14.
Drug Treatment: Mice were dosed orally, with vehicle or test compound, once a day from day 0 until day 25. Compounds were suspended in 0.5% methyl cellulose vehicle using a sonicator to ensure uniform suspension. Mice were weighed twice weekly and were dosed according to weight. Dosing volume is 5 mL/kg. Test compound was dosed at 3 mg/kg and 10 mg/kg. Blood glucose was measured twice weekly. After dosing was completed at day 25, the mice continued to be monitored and blood glucose measurements were taken once a week for 3 weeks.

C57BL/6 mice [1] = experiment: MOG-induced EAE in mice; type: in vivo, mouse; conditions: oral, once a day from day 3 until day 21; 1, 3 and 10 mg/kg; FIG. 3
Procedure: (§1) Animals: Female C57BL/6 mice (8 to 10 weeks of age at start of study) (Jackson Laboratory, Bar Harbor, Me.) were housed four per cage and maintained in a humidity—(40-60%) and temperature—(68-72° F.) controlled facility on a 12 hr:12 hr light/dark cycle (lights on at 6:30 am) with free access to food (Harlan Teklad, Orange, Calif., Rodent Diet 8604) and water. Mice were allowed one week of habituation to the animal facility before testing.
Induction of EAE: Mice were immunized subcutaneously, 50 μL per hind flank, with a total of 100 μg MOG35-55 peptide emulsified 1:1 with Complete Freund's adjuvant containing 4 mg/mL heat-killed Mycobacterium tuberculosis. Mice also received 200 ng pertussis toxin intraperitoneally on the day of immunization and 48 hours later.
Clinical scoring: Severity of disease symptoms was scored as follows (in increasing order of severity): 0=normal; 1=limp tail OR hind limb weakness; 2=limp tail AND limb weakness/weakness of 2 or more limbs; 3=severe limb weakness or single limb paralysis; 4=paralysis of 2 or more limbs; 5=death.
Drug treatment: Mice were dosed orally, with vehicle or test compound, once a day from day 3 until day 21. Dosing volume is 5 mL/kg. […] Mice were monitored daily from day 7 onward for disease symptoms. After the last dose on day 21, disease progression was monitored daily for 2 more weeks.

C57BL/6 mice [2] = experiment: Mouse skin allograft survival; type: in vivo; conditions: oral, once a day; 1, 3 and 10 mg/kg; FIG. 5
Procedure: as §1, with “BALB/cJ” for “C57BL/6”, “(6” for “(8”, “7” for “10”, “water. Female C57BL/6 mice (8 to 10 weeks of age at start of study) (Jackson Laboratory, Bar Harbor, Me.) were similarly housed and maintained.” for “water.”, “testing. […]” for “testing.”
Clinical scoring: Skin allografts were inspected and digital images recorded daily until rejection, which was defined as the first day on which more than 80% of the graft is necrotic. […] In an optional related study, on posttransplantation day 5 isolated lymphocytes from peripheral lymph nodes and spleen were counted and characterized for activation markers (e.g., T-cell activation markers) by flow cytometry. Also on day 5, grafts were removed from transplanted recipients, cut into small fragments, digested with collagenase and sedimented over Ficoll-Paque (Pharmacia Biotech, Uppsala, Sweden) to isolate graft-infiltrating lymphocytes, which were counted and characterized for activation markers (e.g., T-cell activation markers) by flow cytometry. […]

Lewis rats = experiment: Collagen-induced arthritis in rats (ankle diameter); type: in vivo; conditions: rat, p.o., q.d., day 0 through day 16; 1, 3 and 10 mg/kg; FIG. 4
Procedure: Female Lewis rats were used in this study. Acclimated animals were anesthetized with isoflurane and given the first collagen injection (day 0). On day 6, they were anesthetized again for the second collagen injection. Collagen was prepared by making a 4 mg/mL solution in 0.01 N acetic acid. Equal volumes of collagen and incomplete Freund's adjuvant were emulsified by hand mixing until a bead of this material held its form when placed in water. Each animal received 300 μL of the mixture each time, spread over 3 subcutaneous sites on the back.
Treatment (p.o., q. d., 5 mL/kg dosing volume) began on day 0 and continued through day 16 with vehicle or compounds given at 24 h intervals. Rats were weighed on days 0, 3, 6 and 9 through 17 and caliper measurements of the ankles taken on days 9 through 17. The 2nd enantiomer of Compound 2 (isolated after resolution of compound 2 by HPLC, with a retention time of 14.9 min per the conditions reported in Example 1.25) was dosed at 1, 3 and 10 mg/kg.

In the case of `N#Cc1cc(OC(F)(F)F)cc(-c2nc(-c3ccc4c(c3)cc3n4CCC3CC(=O)O)no2)c1` (stereo not drawn) [2nd enantiomer of Compound 2, 2-(7-(5-(3-Cyano-5-(trifluoromethoxy)phenyl)-1,2,4-oxadiazol-3-yl)-2,3-dihydro-1H-pyrrolo[1,2-a]indol-1-yl)acetic Acid], the “activity in the mouse type I diabetes assay (blood glucose vs vehicle)” value (NOD/Ltj mice) is reported as “exhibited activity in the mouse type I diabetes assay”, the “activity in the mouse EAE assay (severity of disease symptoms vs vehicle)” value (C57BL/6 mice [1]) is reported as “exhibited activity in the mouse EAE assay” and the “activity in the mouse skin allograft assay (time of rejection vs vehicle)” value (C57BL/6 mice [2]) is reported as “exhibited activity in the mouse skin allograft assay”. The “reduction of mean ankle diameter vs vehicle” value (Lewis rats) was “exhibited activity for reducing mean ankle diameter”.
